Molecular target: T1, Human M4 (Homo sapiens, UniProt P08173)
T1 construct: expressed in transfected cells; host or cells: CHO-K1 (ATCC), stably expressing hM4 and Gqi5
T1 sequence (P08173 1-479): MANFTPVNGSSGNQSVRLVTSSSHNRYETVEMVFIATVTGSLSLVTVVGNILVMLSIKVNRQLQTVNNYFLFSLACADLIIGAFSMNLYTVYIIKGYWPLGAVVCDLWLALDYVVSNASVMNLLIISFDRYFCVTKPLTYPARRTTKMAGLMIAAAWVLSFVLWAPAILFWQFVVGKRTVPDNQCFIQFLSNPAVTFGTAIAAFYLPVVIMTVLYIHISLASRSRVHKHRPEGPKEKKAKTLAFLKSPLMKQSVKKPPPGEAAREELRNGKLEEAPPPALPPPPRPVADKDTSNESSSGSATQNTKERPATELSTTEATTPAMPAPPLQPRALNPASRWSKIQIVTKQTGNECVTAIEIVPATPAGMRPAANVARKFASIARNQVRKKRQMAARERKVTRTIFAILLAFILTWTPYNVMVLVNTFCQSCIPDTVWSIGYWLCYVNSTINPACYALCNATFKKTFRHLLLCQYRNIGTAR
Assay: mAChR M4 cell-based functional assay (calcium flux, potentiation of EC20 acetylcholine response) in hM4-Gqi5 CHO-K1 cells
Conditions: for Emax at 30 µM: % ACh maximum at 30 μM, human M4 CHO-K1 cells; for EC50: CHO-K1 cells transfected with human M4 and Gqi5, positive allosteric modulator activity, EC20 acetylcholine
Experimental: Human M4 cDNA, along with the chimeric G protein Gqi5, were transfected into Chinese hamster ovary (CHO-K1) cells purchased from the American Type Culture Collection using commercially available Lipofectamine 2000 transfection reagent (Dalby, B. et al., Methods (2004) 33(2), 95-103). hM4-Gqi5 cells were grown in Ham's F-12 medium containing 10% heat-inactivated fetal bovine serum (FBS), 20 mM HEPES, 50 μg/mL G418 sulfate (CAS #108321-42-2), and 500 μg/mL Hygromycin B. rM4-Gqi5 cells were grown in DMEM containing 10% heat-inactivated FBS, 20 mM HEPES, 400 μg/mL G418 sulfate, and 500 μg/mL Hygromycin B.
For high throughput measurement of agonist-evoked increases in intracellular calcium, CHO-K1 cells stably expressing muscarinic receptors were plated in growth medium lacking G418 sulfate and hygromycin at 15,000 cells/20 μL/well in Greiner 384-well black-walled, tissue culture (TC)-treated, clear-bottom plates (VWR). Cells were incubated overnight at 37° C. and 5% CO2. The next day, cells were washed using an ELX 405 (BioTek) with assay buffer; the final volume was then aspirated to 20 μL. Next, 20 μL of a 2.3 μM stock of Fluo-4/acetoxymethyl ester (Invitrogen, Carlsbad, CA), prepared as a 2.3 mM stock in DMSO and mixed in a 1:1 ratio with 10% (w/v) Pluronic F-127 and diluted in assay buffer, was added to the wells and the cell plates were incubated for 50 minutes at 37° C. and 5% CO2. Dye was removed by washing with the ELX 405 and the final volume was aspirated to 20 μL. Compound master plates were formatted in an 11 point concentration-response curve (CRC) format (1:3 dilutions) in 100% DMSO with a starting concentration of 10 mM using a BRAVO liquid handler (Agilent). Test compound CRCs were then transferred to daughter plates (240 nL) using the Echo acoustic plate reformatter (Labcyte, Sunnyvale, CA) and then diluted into assay buffer (40 μL) to a 2× stock using a Thermo Fisher Combi (Thermo Fisher Scientific, Waltham, MA).
Calcium flux was measured using the Functional Drug Screening System (FDSS) 6000 or 7000 (Hamamatsu Corporation, Tokyo, Japan) as an increase in the fluorescent static ratio. Compounds were applied to cells (20 μL, 2×) using the automated system of the FDSS at 2-4 seconds into the protocol and the data were collected at 1 Hz. […] Agonist activity was analyzed as a concentration-dependent increase in calcium mobilization upon compound addition. Positive allosteric modulator activity was analyzed as a concentration-dependent increase in the EC20 acetylcholine response. With the acetylcholine EC20 set as baseline, the test compound EC50 is determined as the concentration that produces an increase above baseline of 50% of the maximum increase in acetylcholine response elicted by the test compound. Antagonist activity was analyzed as a concentration-dependent decrease in the EC80 acetylcholine response. Concentration-response curves were generated using a four-parameter logistical equation in XLFit curve fitting software (IDBS, Bridgewater, NJ) for Excel (Microsoft, Redmond, WA) or Prism (GraphPad Software, Inc., San Diego, CA).
Compounds were synthesized as described above. Activity (EC50 and Emax) was determined in the mAChR M4 cell-based functional assay as described above and the data are shown in Table 5. The compound numbers correspond to the compound numbers used in Examples 1-13 and Tables 1, 2, and 3.

Cc1csc2ncnc(N3CCc4ncc(N5CCCn6nccc65)cc4C3)c12 [Compound 25, 4-[3-(6,7-dihydro-5H-pyrazolo[1,5-a]pyrimidin-4-yl)-7,8-dihydro-5H-1,6-naphthyridin-6-yl]-5-methyl-thieno[2,3-d]pyrimidine] showed an Emax at 30 µM of 96% and an EC50 of 60 nM.
For Cc1csc2ncnc(N3CCc4ncc(-c5cnn(C6CC6)c5)cc4C3)c12 [Compound 26, 4-[3-(1-cyclopropylpyrazol-4-yl)-7,8-dihydro-5H-1,6-naphthyridin-6-yl]-5-methyl-thieno[2,3-d]pyrimidine], the Emax at 30 µM was 75% and the EC50 was 280 nM.
Compound Cc1ccc(F)c(Oc2cnc3c(c2)CN(c2ncnc4ccsc24)CC3)c1 [Compound 27, 4-[3-(2-fluoro-5-methyl-phenoxy)-7,8-dihydro-5H-1,6-naphthyridin-6-yl]thieno[3,2-d]pyrimidine] has an Emax at 30 µM of 36% and an EC50 of 2380 nM.
Cc1nn(C)cc1-c1cnc2c(c1)CN(c1ncnc3scc(C)c13)CC2 [Compound 28, 4-[3-(1,3-dimethylpyrazol-4-yl)-7,8-dihydro-5H-1,6-naphthyridin-6-yl]-5-methyl-thieno[2,3-d]pyrimidine] was tested, and the Emax at 30 µM was 78% and the EC50 was 90 nM.
FC(F)(F)c1cnc2c(c1)CN(c1ncnc3scc(Br)c13)CC2 [Compound 29, 5-bromo-4-[3-(trifluoromethyl)-7,8-dihydro-5H-1,6-naphthyridin-6-yl]thieno[2,3-d]pyrimidine] showed an Emax at 30 µM of 74% and an EC50 of 310 nM.
For FC(F)(F)c1cnc2c(c1)CN(c1ncnc3sc(Br)cc13)CC2 [Compound 30, 6-bromo-4-[3-(trifluoromethyl)-7,8-dihydro-5H-1,6-naphthyridin-6-yl]thieno[2,3-d]pyrimidine], the Emax at 30 µM was 88% and the EC50 was 80 nM.
For CC(C)c1cc2c(N3CCc4ncc(N5CCCn6nccc65)cc4C3)ncnc2s1 [Compound 31, 4-[3-(6,7-dihydro-5H-pyrazolo[1,5-a]pyrimidin-4-yl)-7,8-dihydro-5H-1,6-naphthyridin-6-yl]-6-isopropyl-thieno[2,3-d]pyrimidine], the Emax at 30 µM was 58% and the EC50 was 440 nM.
Cc1csc2ncnc(N3CCc4ncc(Oc5ccccc5F)cc4C3)c12 [Compound 32, 4-[3-(2-fluorophenoxy)-7,8-dihydro-5H-1,6-naphthyridin-6-yl]-5-methyl-thieno[2,3-d]pyrimidine] gave an Emax at 30 µM of 59% and an EC50 of 560 nM.
Fc1ccccc1Oc1cnc2c(c1)CN(c1ncnc3sccc13)CC2 [Compound 33, 4-[3-(2-fluorophenoxy)-7,8-dihydro-5H-1,6-naphthyridin-6-yl]thieno[2,3-d]pyrimidine] showed an Emax at 30 µM of 46% and an EC50 of 200 nM.
Compound Cn1nccc1Nc1cnc2c(c1)CN(c1ncnc3sccc13)CC2 [Compound 34, N-(2-methylpyrazol-3-yl)-6-thieno[2,3-d]pyrimidin-4-yl-7,8-dihydro-5H-1,6-naphthyridin-3-amine] has an Emax at 30 µM of 55% and an EC50 of 100 nM.
With Cc1noc(C)c1-c1cnc2c(c1)CN(c1ncnc3sc(C(C)C)cc13)CC2 [Compound 35, 4-[6-(6-isopropylthieno[2,3-d]pyrimidin-4-yl)-7,8-dihydro-5H-1,6-naphthyridin-3-yl]-3,5-dimethyl-isoxazole] the Emax at 30 µM was 22% and the EC50 was 1230 nM.
Compound [2H]c1csc2ncnc(N3CCc4ncc(C(F)(F)F)cc4C3)c12 [Compound 36, 5-deuterio-4-[3-(trifluoromethyl)-7,8-dihydro-5H-1,6-naphthyridin-6-yl]thieno[2,3-d]pyrimidine] has an Emax at 30 µM of 78% and an EC50 of 160 nM.
Compound FC(F)(F)c1cnc2c(c1)CN(c1ncnc3scc(C4CC4)c13)CC2 [Compound 37, 5-cyclopropyl-4-[3-(trifluoromethyl)-7,8-dihydro-5H-1,6-naphthyridin-6-yl]thieno[2,3-d]pyrimidine] has an Emax at 30 µM of 22% and an EC50 of 1390 nM.
For Cc1coc2ncnc(N3CCc4ncc(-c5cnn(C6CC6)c5)cc4C3)c12 [Compound 38, 4-[3-(1-cyclopropylpyrazol-4-yl)-7,8-dihydro-5H-1,6-naphthyridin-6-yl]-5-methyl-furo[2,3-d]pyrimidine], the Emax at 30 µM was 83% and the EC50 was 60 nM.
Cc1coc2ncnc(N3CCc4ncc(Nc5cccnc5F)cc4C3)c12 [Compound 39, N-(2-fluoro-3-pyridyl)-6-(5-methylfuro[2,3-d]pyrimidin-4-yl)-7,8-dihydro-5H-1,6-naphthyridin-3-amine] gave an Emax at 30 µM of 94% and an EC50 of 80 nM.
In the case of Cc1noc2ncnc(N3CCc4ncc(C(F)(F)F)cc4C3)c12 [Compound 40, 3-methyl-4-[3-(trifluoromethyl)-7,8-dihydro-5H-1,6-naphthyridin-6-yl]isoxazolo[5,4-d]pyrimidine], the Emax at 30 µM is reported as 94% and the EC50 is reported as 710 nM.
With Cc1coc2ncnc(N3CCc4ncc(C(F)(F)F)cc4C3)c12 [Compound 41, 5-methyl-4-[3-(trifluoromethyl)-7,8-dihydro-5H-1,6-naphthyridin-6-yl]furo[2,3-d]pyrimidine] the Emax at 30 µM was 86% and the EC50 was 50 nM.
Compound Cc1coc2ncnc(N3CCc4ncc(N5CCCn6nccc65)cc4C3)c12 [Compound 42, 4-[3-(6,7-dihydro-5H-pyrazolo[1,5-a]pyrimidin-4-yl)-7,8-dihydro-5H-1,6-naphthyridin-6-yl]-5-methyl-furo[2,3-d]pyrimidine] has an Emax at 30 µM of 99% and an EC50 of 10 nM.
In the case of Cc1nn(C)cc1-c1cnc2c(c1)CN(c1ncnc3onc(C)c13)CC2 [Compound 43, 4-[3-(1,3-dimethylpyrazol-4-yl)-7,8-dihydro-5H-1,6-naphthyridin-6-yl]-3-methyl-isoxazolo[5,4-d]pyrimidine], the Emax at 30 µM is reported as 80% and the EC50 is reported as 590 nM.
For Cc1nn(C)cc1-c1cnc2c(c1)CN(c1ncnc3occ(C)c13)CC2 [Compound 44, 4-[3-(1,3-dimethylpyrazol-4-yl)-7,8-dihydro-5H-1,6-naphthyridin-6-yl]-5-methyl-furo[2,3-d]pyrimidine], the Emax at 30 µM was 95% and the EC50 was 120 nM.
Work on Cc1noc2ncnc(N3CCc4ncc(N5CCCn6nccc65)cc4C3)c12 [Compound 45, 4-[3-(6,7-dihydro-5H-pyrazolo[1,5-a]pyrimidin-4-yl)-7,8-dihydro-5H-1,6-naphthyridin-6-yl]-3-methyl-isoxazolo[5,4-d]pyrimidine] yielded an Emax at 30 µM of 93% and an EC50 of 90 nM.
For Cc1noc2ncnc(N3CCc4ncc(-c5cnn(C6CC6)c5)cc4C3)c12 [Compound 46, 4-[3-(1-cyclopropylpyrazol-4-yl)-7,8-dihydro-5H-1,6-naphthyridin-6-yl]-3-methyl-isoxazolo[5,4-d]pyrimidine], the Emax at 30 µM was 75% and the EC50 was 370 nM.
Compound Cc1coc2ncnc(N3CCc4ncc(N5CCOc6ncccc65)cc4C3)c12 [Compound 47, 1-[6-(5-methylfuro[2,3-d]pyrimidin-4-yl)-7,8-dihydro-5H-1,6-naphthyridin-3-yl]-2,3-dihydropyrido[2,3-b][1,4]oxazine] has an Emax at 30 µM of 125% and an EC50 of 50 nM.

From patent US20250017935A1, “7,8-DIHYDRO-5H-1,6-NAPHTHYRIDINE DERIVATIVES AS POSITIVE ALLOSTERIC MODULATORS OF THE MUSCARINIC ACETYLCHOLINE RECEPTOR M4 FOR TREATING NEUROLOGICAL AND PSYCHIATRIC DISORDERS” (Vanderbilt University, priority 2021, published 2025)
